Laboratory results: the NIST ThermoML archive (doi:10.1021/acs.jced.6b00202)
Numbers after ± are expanded uncertainties.

COC(C)(C)C [2-methoxy-2-methylpropane]
Liquid, Brillouin light scattering
Conditions	speed of sound [m/s]
303.11 K, 7000 kPa	1078.5 ± 11
303.12 K, 10000 kPa	1093.4 ± 11
303.13 K, 1000 kPa	1023.2 ± 10
303.15 K, 2500 kPa	1035.3 ± 10
303.15 K, 8500 kPa	1086.9 ± 11
303.2 K, 4000 kPa	1045.4 ± 10
303.2 K, 5500 kPa	1058.1 ± 11
308.06 K, 2500 kPa	1018.4 ± 10
308.11 K, 10000 kPa	1080 ± 11
308.12 K, 4000 kPa	1025.3 ± 10
308.13 K, 5500 kPa	1037.2 ± 10
308.13 K, 8500 kPa	1064.6 ± 11
308.23 K, 1000 kPa	1003.3 ± 10
308.24 K, 7000 kPa	1052.5 ± 11
313.09 K, 1000 kPa	975 ± 9.8
313.1 K, 2500 kPa	990.3 ± 10
313.13 K, 7000 kPa	1034.7 ± 10
313.15 K, 4000 kPa	1007 ± 10
313.17 K, 10000 kPa	1051.6 ± 11
313.2 K, 5500 kPa	1018.3 ± 10
313.24 K, 8500 kPa	1049 ± 11
318.06 K, 8500 kPa	1020.1 ± 10
318.07 K, 1000 kPa	959.3 ± 9.7
318.18 K, 7000 kPa	1012.5 ± 10
318.22 K, 4000 kPa	985.3 ± 9.9
318.23 K, 2500 kPa	971.4 ± 9.8
318.24 K, 5500 kPa	996.7 ± 10
318.25 K, 10000 kPa	1040 ± 11
323.07 K, 10000 kPa	1016.8 ± 10
323.12 K, 8500 kPa	1006.1 ± 10
323.14 K, 7000 kPa	987.9 ± 10
323.15 K, 1000 kPa	932.5 ± 9.4
323.18 K, 2500 kPa	947.7 ± 9.6
323.21 K, 5500 kPa	982.2 ± 10
323.25 K, 4000 kPa	964.9 ± 9.8
328.06 K, 7000 kPa	971.9 ± 9.8
328.08 K, 1000 kPa	917 ± 9.3
328.11 K, 2500 kPa	926.2 ± 9.3
328.13 K, 8500 kPa	984.6 ± 10
328.14 K, 5500 kPa	963.3 ± 9.8
328.16 K, 4000 kPa	942.5 ± 9.5
328.19 K, 10000 kPa	991.7 ± 10
333.08 K, 1000 kPa	893.5 ± 9
333.08 K, 2500 kPa	904.6 ± 9.1
333.12 K, 4000 kPa	920.6 ± 9.3
333.18 K, 10000 kPa	978.4 ± 9.9
333.2 K, 5500 kPa	941.5 ± 9.6
333.21 K, 7000 kPa	949.1 ± 9.7
333.22 K, 8500 kPa	967.6 ± 9.9
338.09 K, 1000 kPa	867.8 ± 8.8
338.11 K, 7000 kPa	931.3 ± 9.4
338.11 K, 8500 kPa	941 ± 9.6
338.16 K, 5500 kPa	922.2 ± 9.4
338.17 K, 10000 kPa	954.4 ± 9.8
338.22 K, 4000 kPa	898.7 ± 9.1
338.23 K, 2500 kPa	884.4 ± 8.9
343.15 K, 7000 kPa	911.8 ± 9.4
343.18 K, 8500 kPa	926.4 ± 9.5
343.19 K, 4000 kPa	883.2 ± 8.9
343.19 K, 5500 kPa	892.8 ± 9.1
343.2 K, 1000 kPa	845.4 ± 8.6
343.22 K, 2500 kPa	868.6 ± 8.8
343.24 K, 10000 kPa	941 ± 9.5
348.1 K, 5500 kPa	874.9 ± 9
348.12 K, 7000 kPa	890.7 ± 9.1
348.16 K, 4000 kPa	858.5 ± 8.7
348.16 K, 8500 kPa	907.4 ± 9.2
348.17 K, 10000 kPa	915.3 ± 9.3
348.22 K, 1000 kPa	829.7 ± 8.4
348.22 K, 2500 kPa	844.7 ± 8.5
353.05 K, 5500 kPa	858.5 ± 8.8
353.1 K, 7000 kPa	868.9 ± 8.9
353.11 K, 10000 kPa	903.3 ± 9.2
353.2 K, 2500 kPa	825.4 ± 8.4
353.22 K, 4000 kPa	841.4 ± 8.5
353.23 K, 8500 kPa	889.4 ± 9.1
353.25 K, 1000 kPa	800 ± 8.2
358.08 K, 7000 kPa	852.1 ± 8.7
358.09 K, 5500 kPa	835.6 ± 8.6
358.14 K, 8500 kPa	866.9 ± 8.9
358.15 K, 1000 kPa	779.2 ± 8
358.18 K, 10000 kPa	883.2 ± 9.1
358.19 K, 2500 kPa	802.1 ± 8.2
358.19 K, 4000 kPa	816.3 ± 8.3
363.06 K, 1000 kPa	761.1 ± 7.7
363.09 K, 2500 kPa	775.4 ± 7.9
363.09 K, 5500 kPa	811.7 ± 8.4
363.14 K, 7000 kPa	833.6 ± 8.6
363.18 K, 8500 kPa	844.2 ± 8.7
363.23 K, 4000 kPa	796.3 ± 8.1
363.24 K, 10000 kPa	863.5 ± 8.9
368.06 K, 5500 kPa	796.6 ± 8.3
368.08 K, 10000 kPa	844.9 ± 8.6
368.13 K, 7000 kPa	813 ± 8.4
368.15 K, 1000 kPa	734.3 ± 7.5
368.16 K, 4000 kPa	777 ± 7.9
368.21 K, 8500 kPa	831.5 ± 8.5
368.25 K, 2500 kPa	754.9 ± 7.7
373.07 K, 1000 kPa	713.9 ± 7.3
373.07 K, 10000 kPa	828.1 ± 8.5
373.11 K, 8500 kPa	811.5 ± 8.4
373.12 K, 5500 kPa	770.2 ± 8
373.16 K, 4000 kPa	753.8 ± 7.7
373.17 K, 2500 kPa	733.6 ± 7.5
373.24 K, 7000 kPa	791.5 ± 8.3
378.06 K, 4000 kPa	732.9 ± 7.5
378.07 K, 5500 kPa	751.9 ± 7.9
378.07 K, 7000 kPa	770.5 ± 8.1
378.13 K, 2500 kPa	711.8 ± 7.3
378.13 K, 8500 kPa	791.5 ± 8.2
378.22 K, 1000 kPa	691.3 ± 7.1
378.25 K, 10000 kPa	804 ± 8.3
383.07 K, 1000 kPa	666.2 ± 6.9
383.08 K, 4000 kPa	713 ± 7.3
383.12 K, 2500 kPa	690.6 ± 7.1
383.13 K, 7000 kPa	753.8 ± 7.9
383.15 K, 8500 kPa	769.5 ± 8
383.18 K, 5500 kPa	731.2 ± 7.7
383.21 K, 10000 kPa	789.5 ± 8.2
388.09 K, 5500 kPa	711.4 ± 7.5
388.16 K, 7000 kPa	730.1 ± 7.7
388.2 K, 4000 kPa	690 ± 7.1

Conditions	speed of sound [m/s]
303.19 K, Liquid, Brillouin Light Scattering	1024.7 ± 10
308.16 K, Liquid, Brillouin Light Scattering	988.6 ± 10
313.08 K, Liquid, Brillouin Light Scattering	960.4 ± 9.7
318.19 K, Liquid, Brillouin Light Scattering	942.7 ± 9.5
323.07 K, Liquid, Brillouin Light Scattering	912.4 ± 9.2
328.21 K, Liquid, Brillouin Light Scattering	904.7 ± 9.1
333.13 K, Liquid, Brillouin Light Scattering	876.8 ± 8.8
338.07 K, Liquid, Brillouin Light Scattering	855.1 ± 8.6
343.12 K, Liquid, Brillouin Light Scattering	826.3 ± 8.3
348.24 K, Liquid, Brillouin Light Scattering	797.5 ± 8
353.11 K, Liquid, Brillouin Light Scattering	781.5 ± 7.9
358.22 K, Liquid, Brillouin Light Scattering	748.6 ± 7.6
363.16 K, Liquid, Brillouin Light Scattering	727.1 ± 7.3
368.17 K, Liquid, Brillouin Light Scattering	707.1 ± 7.1
373.05 K, Liquid, Brillouin Light Scattering	698.9 ± 7.1
378.05 K, Liquid, Brillouin Light Scattering	668.3 ± 6.8
378.1 K, Gas, Brillouin light scattering	171.6 ± 2
383.08 K, Liquid, Brillouin Light Scattering	646.4 ± 6.5
388.11 K, Liquid, Brillouin Light Scattering	627.5 ± 6.4
388.2 K, Gas, Brillouin light scattering	170.9 ± 2
